Results reported in ChEMBL document CHEMBL4316608, “Artemisinin-indole and artemisinin-imidazole hybrids: Synthesis, cytotoxic evaluation and reversal effects on multidrug resistance in MCF-7/ADR cells” (Bioorg Med Chem Lett, 2019).
Counter-ions that a name gives are not always drawn.

Key:
A549 = experiment: Antiproliferative activity against human A549 cells measured after 48 hrs by MTT assay; format: functional, cell-based; settings: A549, 48 h
HepG2 = experiment: Antiproliferative activity against human HepG2 cells measured after 48 hrs by MTT assay; format: functional, cell-based; settings: HepG2, 48 h
[1] = Toxicity in human MCF7 cells assessed as inhibition of cell proliferation at 5 uM measured after 48 hrs by MTT assay; format: cell-based
NCI/ADR-RES = experiment: Potentiation of adriamycin-induced antiproliferative activity against human MCF7/ADR cells assessed as fold reduction in adriamycin IC50 at 5 uM measured after 48 hrs by MTT assay; format: functional
L02 = experiment: Cytotoxicity against human L02 cells measured after 48 hrs by MTT assay; format: cell-based; settings: L02, 48 h
MDA-MB-231 = experiment: Antiproliferative activity against human MDA-MB-231 cells measured after 48 hrs by MTT assay; format: functional, cell-based; settings: MDA-MB-231, 48 h
MCF7 = experiment: Antiproliferative activity against human MCF7 cells measured after 48 hrs by MTT assay; format: functional, cell-based; settings: MCF7, 48 h
CCRF-CEM = experiment: Cytotoxicity against human CCRF-CEM cells by XTT assay; format: functional, cell-based
ADR5000 cell line = experiment: Cytotoxicity against human CEM/ADR5000 cells by XTT assay; format: functional, cell-based

Row | SMILES | IC50 (A549) [µM] | IC50 (HepG2) [µM] | inhibition at 48 h, 5 µM [1] [%] | fold change (FC) (NCI/ADR-RES) | IC50 (L02) [µM] | IC50 (MDA-MB-231) [µM] | IC50 (MCF7) [µM] | IC50 (CCRF-CEM) [µM] | IC50 (ADR5000 cell line) [µM]
1 | C[C@H]1[C@H](OC(=O)CCC(=O)OCCCn2cnc([N+](=O)[O-])c2)O[C@@H]2O[C@@]3(C)CC[C@H]4[C@H](C)CC[C@@H]1[C@@]24OO3 | 20 | 33.3 | 22.3 | 15.72 | 34.3 | 80.9 | 12.7 | – | –
2 | C[C@H]1[C@H](OC(=O)CCC(=O)OCCCCn2cc(C#N)nc2Cl)O[C@@H]2O[C@@]3(C)CC[C@H]4[C@H](C)CC[C@@H]1[C@@]24OO3 | 23.3 | 40.2 | 16.6 | 11.17 | 52.3 | > 100 | 13.6 | – | –
3 | C[C@@H]1CC[C@H]2[C@@H](C)C(OC(=O)c3c[nH]c4ccccc34)O[C@@H]3O[C@@]4(C)CC[C@@H]1[C@]32OO4 (stereo partly specified) | 12.9 | 15.2 | 18.9 | 95.85 | 42.6 | 58.9 | 6.78 | – | –
4 | C[C@H]1[C@H](OC(=O)CCC(=O)OCCn2ccnc2[N+](=O)[O-])O[C@@H]2O[C@@]3(C)CC[C@H]4[C@H](C)CC[C@@H]1[C@@]24OO3 | 14 | 23.7 | 13.5 | 27.09 | 50.2 | 39.4 | 16.4 | – | –
5 | C[C@H]1[C@H](OC(=O)CCC(=O)OCCn2cnc([N+](=O)[O-])c2)O[C@@H]2O[C@@]3(C)CC[C@H]4[C@H](C)CC[C@@H]1[C@@]24OO3 | 12.7 | 34.9 | 7.78 | 43.48 | 56.2 | 82.3 | 14 | – | –
6 | C[C@H]1[C@H](OC(=O)CCC(=O)OCCCCn2cnc(Br)c2)O[C@@H]2O[C@@]3(C)CC[C@H]4[C@H](C)CC[C@@H]1[C@@]24OO3 | 18.9 | 35.9 | 8.95 | 5.56 | 41.3 | > 100 | 11.6 | – | –
7 | C[C@H]1[C@H](OC(=O)CCC(=O)OCCn2cc(C#N)nc2Cl)O[C@@H]2O[C@@]3(C)CC[C@H]4[C@H](C)CC[C@@H]1[C@@]24OO3 | 20.7 | 44.3 | 21.3 | 9.24 | 61.2 | 66.4 | 17.5 | – | –
8 | COc1ccc(CCN(C)CCCC(C#N)(c2ccc(OC)c(OC)c2)C(C)C)cc1OC (stereo unspecified) | – | – | – | 39.62 | – | – | – | – | –
9 | COc1cccc2c1C(=O)c1c(O)c3c(c(O)c1C2=O)C[C@@](O)(C(=O)CO)C[C@@H]3O[C@H]1C[C@H](N)[C@H](O)[C@H](C)O1 [DOXORUBICIN HYDROCHLORIDE] | 1.13 | – | – | – | 0.79 | – | – | – | –
10 | C[C@@H]1CC[C@H]2[C@@H](C)C(OC(=O)/C=C/c3cc4ccccc4[nH]3)O[C@@H]3O[C@@]4(C)CC[C@@H]1[C@]32OO4 (stereo partly specified) | > 50 | > 50 | 5.38 | 61.05 | > 100 | > 100 | > 50 | – | –
11 | COc1ccc2[nH]cc(C(=O)OC3O[C@@H]4O[C@@]5(C)CC[C@H]6[C@H](C)CC[C@@H]([C@H]3C)[C@@]46OO5)c2c1 (stereo partly specified) | 13.4 | 27.7 | 19.8 | 71.89 | 36.4 | 70.4 | 14.5 | – | –
12 | C[C@H]1[C@H](OC(=O)CCC(=O)OCCCCn2cnc(C#N)c2C#N)O[C@@H]2O[C@@]3(C)CC[C@H]4[C@H](C)CC[C@@H]1[C@@]24OO3 | 17.9 | 32.3 | 11.2 | 4.1 | 42.9 | 50.8 | 15.2 | – | –
13 | C[C@H]1[C@H](OC(=O)CCC(=O)OCCCn2cnc(Br)c2)O[C@@H]2O[C@@]3(C)CC[C@H]4[C@H](C)CC[C@@H]1[C@@]24OO3 | 26 | 41.6 | 23.2 | 5.6 | > 100 | 80.9 | 12.4 | – | –
14 | C[C@H]1[C@H](OC(=O)CCC(=O)OCCCCn2cnc([N+](=O)[O-])c2)O[C@@H]2O[C@@]3(C)CC[C@H]4[C@H](C)CC[C@@H]1[C@@]24OO3 | 25.8 | 30.2 | 20.2 | 26.06 | 77.5 | 57 | 15.4 | – | –
15 | C[C@H]1[C@H](OC(=O)CCC(=O)OCCn2cnc(C#N)c2C#N)O[C@@H]2O[C@@]3(C)CC[C@H]4[C@H](C)CC[C@@H]1[C@@]24OO3 | 12.4 | 25.6 | 13.7 | 5.41 | 49.1 | > 100 | 10.8 | – | –
16 | C[C@@H]1CC[C@H]2[C@@H](C)C(=O)O[C@@H]3O[C@@]4(C)CC[C@@H]1[C@]32OO4 [ARTEMISININ] | > 50 | > 50 | – | – | > 100 | > 100 | > 50 | – | –
17 | C[C@H]1[C@H](OC(=O)CCC(=O)OCCCn2cc(C#N)nc2Cl)O[C@@H]2O[C@@]3(C)CC[C@H]4[C@H](C)CC[C@@H]1[C@@]24OO3 | 19.6 | > 50 | 12.8 | 8.51 | 72.8 | > 100 | 13.8 | – | –
18 | C[C@H]1[C@H](OC(=O)CCC(=O)OCCCCn2ccnc2[N+](=O)[O-])O[C@@H]2O[C@@]3(C)CC[C@H]4[C@H](C)CC[C@@H]1[C@@]24OO3 | 16.5 | 21.2 | 19.8 | 14.71 | 45.7 | 85.2 | 9.78 | – | –
19 | C[C@@H]1CC[C@@H]2[C@]34OO[C@](C)(CC[C@@H]13)O[C@H]4OC[C@]2(C)O | – | – | – | – | – | – | – | 156 | 90
20 | C[C@H]1[C@H](OC(=O)CCC(=O)OCCCn2cnc(C#N)c2C#N)O[C@@H]2O[C@@]3(C)CC[C@H]4[C@H](C)CC[C@@H]1[C@@]24OO3 | 26.7 | > 50 | 15 | 4.37 | 66.2 | 93.2 | 16.2 | – | –
21 | C[C@H]1[C@H](OC(=O)CCC(=O)O)O[C@@H]2O[C@@]3(C)CC[C@H]4[C@H](C)CC[C@@H]1[C@@]24OO3 [ARTESUNATE] | 50.7 | 39.9 | – | – | 72.2 | 75.7 | 38.7 | – | –
22 | C[C@H]1[C@H](OC(=O)CCC(=O)OCCn2cnc(Br)c2)O[C@@H]2O[C@@]3(C)CC[C@H]4[C@H](C)CC[C@@H]1[C@@]24OO3 | 24.7 | 31.9 | 12.4 | 6.37 | 66.9 | > 100 | 13.1 | – | –
23 | C[C@H]1[C@H](OC(=O)CCC(=O)OCCCn2ccnc2[N+](=O)[O-])O[C@@H]2O[C@@]3(C)CC[C@H]4[C@H](C)CC[C@@H]1[C@@]24OO3 | 20.9 | 39.3 | 22.3 | 16.69 | 46.4 | > 100 | 12.9 | – | –
